Literature values in patent publication US20080248140A1, “COMPOSITION FOR SUPPORTING RESTFUL SLEEP” (priority 2007, published 2008).

Key:
GABA(A) receptor = conditions: activity produced by muscimol; Yuan et al. 2004
[1] = normal subjects (Mayer et al. 1996)

Structure (SMILES) | neural activity in the brainstem (GABA(A) receptor) | quality of sleep and post-sleep restfulness [1]
CC1=C2[C@H](/C=C(\C)C(=O)O)CC[C@@H](C)[C@H]2CC1 [Valerinic acid] | decrease neural activity in the brainstem | –
C/C1=C2/[N-][C@H]([C@H](CC(N)=O)[C@@]2(C)CCC(=O)NC[C@@H](C)OP(=O)([O-])O[C@H]2[C@@H](O)[C@@H](n3cnc4cc(C)c(C)cc43)O[C@@H]2CO)[C@]2(C)N=C(/C(C)=C3N=C(/C=C4N=C1[C@@H](CCC(N)=O)C\4(C)C)[C@@H](CCC(N)=O)[C@]\3(C)CC(N)=O)[C@@H](CCC(N)=O)[C@]2(C)CC(N)=O.[CH3-].[Co+3] [Methylcobalamin] | – | increases in the quality of sleep and feelings of post-sleep restfulness
